Laboratory results published in patent US20080280851A1 (Clavis Pharma AS, priority 2005, published 2008).
Read-outs that look alike come from different tables or passages of the source. Marks after values point to notes of the source that are not given here.

Tests used:
[1] = system: Co6044 (human colon carcinoma); assay: Antitumour activity in human colon cancer xenograft Co6044, IP treatment; details: for antitumor effect: IP every third day for five times, ester 40 mg/kg, gemcitabine 120 mg/kg; for Toxic deaths (d): 8 mice
Source text: (§1) Treatment started when the tumours reached a mean volume of 100 mm^3.

[2] = Maximum tolerated dose, every third day repeated five times; type: in vivo, mice; details: administered every third day
Source text: This is shown below by the experiments presented in table 1 and table 2 using different mice strains and also different human colon xenografts.

[3] = system: Colon 6044 (human colon carcinoma); assay: Antitumour activity in Co6044 after oral administration (Table 3); details: for BWC D13 / Toxic deaths (d) / Optimum T/C (on day): Oral, Q3 × 5
[4] = system: Colon 5776 (human colon carcinoma); assay: Antitumour activity in human colon xenograft Co5776, IP treatment; details: for Toxic deaths (d): D8, 11, 14, 17, 20, 8 mice; for antitumour activity in terms of reductions in tumour growth: gemcitabine 120 mg/kg, elaidic acid (5′)-gemcitabine ester 40 mg/kg, FIG. 1
Source text: (§2) Human colon cancer Co5776 was inserted to Ncr:nu/nu female mice subcutaneously, and treatment started when tumours reached a mean volume of 100 mm^3.

[5] = system: Colon 6044 (human colon carcinoma); assay: Antitumour activity in Co6044 after oral administration, different dosing schedules (Table 4); type: in vivo, NCR: nu/nu female mice; details: for BWC / Toxic deaths (d) / Optimum T/C (on day): Oral; for Toxic deaths (d): 7 mice
Source text: Antitumour Activity of Elaidic Acid (5′)-Gemcitabine Ester in Co6044 after Oral Administration

[6] = system: Colon 6044 (human colon carcinoma); details: mouse, in vivo, po
[7] = system: Colon 5776 (human colon carcinoma); details: mouse, in vivo, ip, 120 mg/kg
Source text: as §2

[8] = system: Co6044 (human colon carcinoma); details: mouse, in vivo, ip, 120 mg/kg
Source text: as §1

[9] = IP, 40 mg/kg, D8, 11, 14, 17, 20
[10] = IP, 120 mg/kg, D8, 11, 14, 17, 20

CCCCCCCC/C=C/CCCCCCCC(=O)OC[C@H]1O[C@@H](n2ccc(N)nc2=O)C(F)(F)[C@@H]1O [Elaidic acid (5′)-gemcitabine ester, elaidic acid (5′)-gemcitabine ester]
antitumor effect [1]: Excellent antitumor effect
Optimum T/C [1, 9]: 19* %
Toxic deaths (d) [1, 9]: 0
BWC D8-15 (body weight change) ([1]; IP, 40 mg/kg, D8, 11, 14, 17, 20, D8-15): −1
maximum tolerated dose [2]: ~40 mg/kg per injection
BWC D13 ([3]; 40 mg/kg): −7%
Toxic deaths (d) ([3]; 40 mg/kg, deaths on day 15): 2/8 (15)
Optimum T/C (on day) ([3]; 40 mg/kg, on day 27): 5 (27)* %
Optimum T/C (on day) ([3]; 60 mg/kg): Toxic
BWC D13 ([3]; 60 mg/kg): −9%
Toxic deaths (d) ([3]; 60 mg/kg, deaths on days 12-24): 6/8 (12-24)
Optimum T/C (on day) ([3]; 80 mg/kg): Toxic
BWC D13 ([3]; 80 mg/kg): −6%
Toxic deaths (d) ([3]; 80 mg/kg, deaths on days 16-22): 6/8 (16-22)
antitumour activity after oral administration ([3]; oral, 40 mg/kg): highly active
tolerability after oral administration ([3]; oral, 40 mg/kg): tolerable
BWC (body weight change) ([4]; 40 mg/kg, D8, 11, 14, 17, 20): −4%
Optimum T/C (volume of treated tumour versus volume of control tumour) ([4]; 40 mg/kg, D8, 11, 14, 17, 20): 17* %
Toxic deaths (d) ([4]; 40 mg/kg): 0
antitumour activity in terms of reductions in tumour growth [4]: high antitumour activity
BWC ([5]; 5 mg/kg, D7-11): −3%
Toxic deaths (d) ([5]; 5 mg/kg, D7-11): 0
Optimum T/C (on day) ([5]; 5 mg/kg, D7-11, on day 28): 10 (28)* %
BWC ([5]; 10 mg/kg, D7, 10, 13, 16, 19): −1%
Toxic deaths (d) ([5]; 10 mg/kg, D7, 10, 13, 16, 19): 0
Optimum T/C (on day) ([5]; 10 mg/kg, D7, 10, 13, 16, 19, on day 24): 35 (24)* %
BWC ([5]; 10 mg/kg, D7-11): −5%
Toxic deaths (d) ([5]; 10 mg/kg, D7-11): 0
Optimum T/C (on day) ([5]; 10 mg/kg, D7-11, on day 17): 8 (17)* %
BWC ([5]; 15 mg/kg, D7, 10, 13, 16, 19): −1%
Toxic deaths (d) ([5]; 15 mg/kg, D7, 10, 13, 16, 19): 0
Optimum T/C (on day) ([5]; 15 mg/kg, D7, 10, 13, 16, 19, on day 24): 27 (24)* %
BWC ([5]; 20 mg/kg, D7, 10, 13, 16, 19): −3%
Toxic deaths (d) ([5]; 20 mg/kg, D7, 10, 13, 16, 19, death on day 17): 1 (17)
Optimum T/C (on day) ([5]; 20 mg/kg, D7, 10, 13, 16, 19, on day 24): 16 (24)* %
BWC ([5]; 50 mg/kg, D7, 14): 0%
Toxic deaths (d) ([5]; 50 mg/kg, D7, 14): 0
Optimum T/C (on day) ([5]; 50 mg/kg, D7, 14, on day 17): 22 (17)* %
BWC ([5]; 100 mg/kg, D7, 14): −4%
Toxic deaths (d) ([5]; 100 mg/kg, D7, 14, death on day 20): 1 (20)
Optimum T/C (on day) ([5]; 100 mg/kg, D7, 14, on day 24): 4 (24)* %
antitumour activity after oral administration ([5]; oral, all tested schedules): High dose dependent activity
significance of antitumour activity ([5]; oral, all the tested schedules): Significant antitumour activity

Nc1ccn([C@@H]2O[C@H](CO)[C@@H](O)C2(F)F)c(=O)n1 [Gemcitabine, 2′,2′-difluorodeoxycytidine, reference compound]
BWC D13 ([6]; 120 mg/kg): −16%
BWC D13 ([6]; 180 mg/kg): −22%
BWC D13 ([6]; 240 mg/kg): −21%
antitumor effect [1]: Excellent antitumor effect
Optimum T/C [1, 10]: 15* %
Toxic deaths (d) [1, 10]: 0
BWC (body weight change) [7]: −5%
maximum tolerated dose [2]: approximately 120 mg/kg per injection
BWC D8-15 (body weight change) [8]: −3
Optimum T/C (volume of treated tumour versus volume of control tumour) ([4]; 120 mg/kg, D8, 11, 14, 17, 20): 17* %
Toxic deaths (d) ([4]; 120 mg/kg, death on day 18): 1 (18)
antitumour activity in terms of reductions in tumour growth [4]: high antitumour activity
